From ChEMBL document CHEMBL1201862, “PubChem BioAssay data set” (2004) come the findings set out here.

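Values below derive from 48-hour exposures of cells grown in 96-well plates, with endpoints linearly interpolated between the two concentrations bracketing the appropriate inhibition level. GI50: concentration for 50% inhibition of growth.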 Activity calls are given as the source filed them. Cut-off read from the data, not from the text of the source: active = GI50 up to about 1.1 µM and inactive = higher.

Test systems include OVCAR-4; HCT-15; IGROV-1; KM12; EKVX; A549; TK-10; ACHN; MDA-MB-435; HOP-62; SK-OV-3; BT-549; HT-29; SK-MEL-5; NCI-H23; T47D; DU-145; SNB-75; HOP-92; HCC 2998.
Holding throughout (assay): NCI-60 cell line screen, 48 h

As to `COc1ccc(C2Oc3ccc(Cl)cc3C=C2[N+](=O)[O-])cc1` (stereo not given), the GI50 with OVCAR-4 is > 100 µM (inactive); with HCT-15, greater than 100 µM; in the assay on IGROV-1, > 100 µM (inactive); in the assay on KM12 it was > 100 µM (inactive); in the assay on EKVX, > 100 µM (inactive); in the assay with A549, > 100 µM (inactive). The GI50 with TK-10, in the assay on ACHN, in the assay on MDA-MB-435, with HOP-62, with SK-OV-3 and with BT-549 was > 100 µM (inactive) in each case. In addition, the GI50 with HT-29, in the assay on SK-MEL-5, in the assay on NCI-H23, with T47D and in the assay on DU-145 was > 100 µM (inactive) each time.
Regarding `C[C@]12CCC3=NCCN3C1=CC[C@@H]1[C@@H]2CC[C@@]2(C)[C@H]1CC[C@]2(C)O`, the GI50 in the assay on OVCAR-4 was > 100 µM (inactive); in the assay with HCT-15, 53.2 µM; in the assay on IGROV-1 it was 39.1 µM (inactive); in the assay on KM12 it was 82.6 µM (inactive); in the assay with EKVX, 96.4 µM (inactive); with SNB-75, 40.7 µM (inactive). For the same compound, the GI50 was > 100 µM (inactive) in the assay on A549; 41.1 µM (inactive) with TK-10; 37.2 µM (inactive) in the assay with HOP-92; > 100 µM (inactive) with ACHN; 84.9 µM (inactive) in the assay on MDA-MB-435; 84.9 µM (inactive) with HOP-62. Further, the GI50 in the assay with SK-OV-3 was > 100 µM (inactive); in the assay with BT-549 it was 44 µM (inactive); in the assay with HT-29, 16.1 µM (inactive); with SK-MEL-5, 17.6 µM (inactive); in the assay with NCI-H23, 59.6 µM (inactive); in the assay with T47D it was 87.1 µM (inactive). The GI50 in the assay on DU-145 was > 100 µM (inactive).
On to `Cc1cc2nc3c(C#N)c4c(c(-c5ccc(Cl)cc5)n3c2cc1C)CCC4`, for which the GI50 in the assay with OVCAR-4 is 38.5 µM (inactive); with HCT-15, 27.9 µM; in the assay on IGROV-1, 18.4 µM (inactive); in the assay with KM12, 22 µM (inactive); with EKVX it was 24.2 µM (inactive); in the assay on A549, 34.5 µM (inactive). Besides, the GI50 was 22.1 µM (inactive) in the assay on TK-10; 20.3 µM (inactive) with HOP-92; 24.2 µM (inactive) in the assay with ACHN; 22.5 µM (inactive) in the assay with MDA-MB-435; 22.4 µM (inactive) in the assay on HOP-62; 18.2 µM (inactive) in the assay with SK-OV-3. Moreover, the GI50 in the assay on BT-549 was 20.4 µM (inactive); in the assay on HT-29, 21.3 µM (inactive); in the assay on SK-MEL-5, 19.6 µM (inactive); with NCI-H23 it was 19.1 µM (inactive); in the assay on T47D, 22.3 µM (inactive); in the assay with DU-145, 20.9 µM (inactive).
Turning to `CCCC(CCC(N)=O)(CCC(N)=O)[N+](=O)[O-]`, the GI50 with HCT-15 was greater than 100 µM; with IGROV-1, > 100 µM (inactive); with KM12 it was > 100 µM (inactive); in the assay with EKVX, > 100 µM (inactive); in the assay with SNB-75 it was > 100 µM (inactive); with A549, > 100 µM (inactive). Moreover, the GI50 in the assay with TK-10, in the assay with HOP-92, in the assay with ACHN, in the assay on MDA-MB-435, in the assay with SK-OV-3 and with BT-549 was > 100 µM (inactive) in each case. For the same compound, the GI50 with HT-29, in the assay with SK-MEL-5, in the assay on NCI-H23, in the assay on T47D and in the assay on DU-145 was > 100 µM (inactive) throughout.
Take `O=C1N/C(=N/N=C/c2c[nH]c3ccccc23)N/C1=C\c1c[nH]c2ccccc12`: the GI50 in the assay with OVCAR-4 is 26.9 µM (inactive); in the assay with HCT-15, 23 µM; with IGROV-1, 19.1 µM (inactive); in the assay on KM12, 21 µM (inactive); in the assay with EKVX, 25.6 µM (inactive); in the assay on SNB-75 it was 28.6 µM (inactive). Also, the GI50 in the assay on A549 was 18.9 µM (inactive); in the assay on TK-10, 94.2 µM (inactive); in the assay with HOP-92 it was 16.8 µM (inactive); in the assay with ACHN it was 21.3 µM (inactive); in the assay with MDA-MB-435, 24.5 µM (inactive); in the assay on HOP-62 it was 27 µM (inactive). Moreover, the GI50 with SK-OV-3 is 35.9 µM (inactive); with BT-549 it was 20.3 µM (inactive); with HT-29 it was 23.1 µM (inactive); with SK-MEL-5 it was 19.6 µM (inactive); with NCI-H23, 18.2 µM (inactive); with T47D it was 17.5 µM (inactive). Moreover, the GI50 in the assay with DU-145 is 30.2 µM (inactive).
For the compound `Cc1ncc(C/N=C/c2ccc(Cl)cc2)c(N)n1`, the GI50 is > 100 µM (inactive) in the assay with OVCAR-4; greater than 100 µM in the assay on HCT-15; > 100 µM (inactive) in the assay on IGROV-1; > 100 µM (inactive) in the assay on KM12; > 100 µM (inactive) with EKVX; > 100 µM (inactive) in the assay with SNB-75. Moreover, the GI50 in the assay on A549, in the assay with TK-10, in the assay with HOP-92, in the assay with ACHN, in the assay with MDA-MB-435 and in the assay with HOP-62 was > 100 µM (inactive) throughout. Moreover, the GI50 in the assay with SK-OV-3, with BT-549, in the assay on HT-29, in the assay with SK-MEL-5, with NCI-H23 and in the assay on T47D was > 100 µM (inactive) in each case. Besides, the GI50 in the assay on DU-145 is > 100 µM (inactive).
As to `O=[N+]([O-])c1ccc(C(Nc2ccccc2)P(c2ccccc2)c2ccccc2)cc1` (stereo not given), the GI50 in the assay on OVCAR-4 was > 100 µM (inactive); with HCT-15 it was greater than 100 µM; in the assay with IGROV-1, > 100 µM (inactive); with KM12 it was > 100 µM (inactive); with EKVX it was > 100 µM (inactive); with SNB-75, > 100 µM (inactive). Besides, the GI50 in the assay on A549 is > 100 µM (inactive); with TK-10 it was > 100 µM (inactive); in the assay with HOP-92 it was > 100 µM (inactive); in the assay with ACHN, > 100 µM (inactive); with MDA-MB-435, > 100 µM (inactive); with HOP-62, 67.3 µM (inactive). The GI50 with SK-OV-3, with BT-549, with HT-29, in the assay with SK-MEL-5, in the assay on NCI-H23 and with T47D was > 100 µM (inactive) each time. For the same compound, in the assay with DU-145, the GI50 was > 100 µM (inactive).
With `CCC(=O)O[C@H]1CC[C@H]2[C@@H]3CCC4=C/C(=N/OC(=O)c5cccc6c(=O)c7ccccc7[nH]c56)CC[C@]4(C)[C@H]3CC[C@]12C`, the GI50 is 38.2 µM (inactive) in the assay with OVCAR-4; 21.3 µM in the assay with HCT-15; 21.8 µM (inactive) in the assay with IGROV-1; 22.9 µM (inactive) with KM12; 8.53 µM (inactive) in the assay on EKVX; 54.6 µM (inactive) in the assay on SNB-75. The GI50 with A549 was 43.5 µM (inactive); in the assay on TK-10 it was 54.6 µM (inactive); in the assay on HOP-92 it was 30.8 µM (inactive); in the assay with ACHN it was 47.9 µM (inactive); in the assay with MDA-MB-435, 27.6 µM (inactive); in the assay with HOP-62, 32.1 µM (inactive). The GI50 is > 100 µM (inactive) in the assay with SK-OV-3; 25.3 µM (inactive) in the assay with BT-549; 27.3 µM (inactive) in the assay with HT-29; 22.8 µM (inactive) with SK-MEL-5; 51.3 µM (inactive) in the assay with NCI-H23; 21.3 µM (inactive) in the assay with HCC 2998. Moreover, the GI50 with T47D was 29.9 µM (inactive).
In the case of `CNC(=O)N1CCN(C(=O)NC)CCN(C(=O)NC)CC1`, the GI50 was greater than 100 µM with HCT-15; > 100 µM (inactive) in the assay on IGROV-1; > 100 µM (inactive) in the assay with EKVX; > 100 µM (inactive) in the assay on SNB-75; > 100 µM (inactive) with A549; > 100 µM (inactive) in the assay on TK-10. The GI50 with HOP-92, with ACHN, in the assay on HOP-62, in the assay with SK-OV-3, in the assay on BT-549 and with HT-29 was > 100 µM (inactive) in each case. For the same compound, the GI50 with SK-MEL-5, with NCI-H23, in the assay on HCC 2998, in the assay on T47D and with DU-145 was > 100 µM (inactive) throughout.
For `O=c1[nH]c(=S)c2cc3c(=S)[nH]c(=O)n(CCO)c3nc2n1CCO`, the GI50 in the assay with OVCAR-4 is > 100 µM (inactive); with HCT-15, greater than 100 µM; in the assay with IGROV-1, > 100 µM (inactive); in the assay on KM12, > 100 µM (inactive); in the assay on EKVX it was > 100 µM (inactive); with SNB-75 it was > 100 µM (inactive). In addition, the GI50 with A549, in the assay with TK-10, in the assay on HOP-92, in the assay on ACHN, in the assay with MDA-MB-435 and in the assay on HOP-62 was > 100 µM (inactive) in each case. Also, the GI50 in the assay on SK-OV-3, in the assay with BT-549, in the assay with SK-MEL-5, with NCI-H23, with HCC 2998 and in the assay with T47D was > 100 µM (inactive) in each case.
Consider `C1=C(CC2=C[P+](c3ccccc3)(c3ccccc3)C=C(c3ccccc3)O2)OC(c2ccccc2)=C[P+]1(c1ccccc1)c1ccccc1`, for which the GI50 in the assay with HCT-15 was 1.63 µM; in the assay on IGROV-1 it was 0.184 µM (active); in the assay on KM12 it was 0.325 µM (active); with EKVX, 0.44 µM (active); in the assay with SNB-75, 0.291 µM (active); in the assay on A549 it was 0.494 µM (active). Besides, the GI50 with TK-10 is 0.475 µM (active); in the assay with HOP-92, 0.166 µM (active); in the assay on ACHN it was 0.644 µM (active); in the assay with MDA-MB-435, 0.304 µM (active); in the assay on HOP-62, 0.597 µM (active); with SK-OV-3, 0.367 µM (active). For the same compound, the GI50 in the assay with BT-549 was 0.097 µM (active); with HT-29 it was 0.358 µM (active); in the assay with SK-MEL-5 it was 0.293 µM (active); in the assay on NCI-H23 it was 0.448 µM (active); in the assay on T47D, 0.17 µM (active); with DU-145, 0.482 µM (active).
